What was measured:
Format in all cases: cell-based, human
[1] = system: MIA PaCa-2 cells (Kras G12C mutation); assay: Cell proliferation inhibition experiment, 3D model, CellTiter-Glo (MIA PaCa-2); details: Homo sapiens, MIA PaCa-2, 120 h, MIA PaCa-2, 3D sphere plate, 5 days; read-out: MIA-PaCa2 IC50
Procedure, shortened: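 3D spheroid model: 200 MIA PaCa-2 cells per well cultured overnight, then treated with a 3.16-fold compound dilution series (0.1% DMSO) for 5 days. Viability read by CellTiter-Glo luminescence. Inhibition rate normalised to DMSO and medium-blank controls; IC50 from four-parameter fit.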

[2] = system: p-ERK in MIA PaCa2 cells (Kras G12C mutation); assay: Cell p-ERK detection experiment (HTRF) in MIA PaCa2 cells; details: compound 2 hours
Procedure, shortened: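 MIA PaCa2 cells (KRAS G12C) seeded overnight, then treated 2 h with 3.16-fold compound dilutions (0.1% DMSO). Lysates probed with p-ERK HTRF antibodies for 4 h; inhibition relative to DMSO and blank wells, IC50 from four-parameter fit.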

[3] = system: NCI-H358 cells (Kras G12C mutation); assay: Cell proliferation inhibition experiment, 3D model, CellTiter-Glo (NCI-H358); details: NCI-H358, 3D sphere plate, 5 days, 2% FBS
Procedure, shortened: (§1)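 NCI-H358 (800 cells/well) and A549 (400 cells/well) were grown as overnight 3D spheroids in 2% FBS medium, then exposed 5 days to 3.16-fold compound dilutions (0.1% DMSO). Viability was read by CellTiter-Glo luminescence; IC50 came from a four-parameter fit of inhibition normalised to DMSO and medium blanks.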

[4] = system: A549 cells (Kras G12S mutation); assay: Cell proliferation inhibition experiment, 3D model, CellTiter-Glo (A549); details: A549, 3D sphere plate, 5 days, 2% FBS
Procedure, shortened: as §1

IC50 [1] [nM]	IC50 ([2]; Homo sapiens, MIA PaCa-2, 2 h) [nM]	IC50 ([3]; Homo sapiens, NCI-H358, 120 h) [nM]	IC50 ([4]; Homo sapiens, A549, 120 h) [µM]	IC50 [2] [nM]	IC50 [3] [nM]	IC50 [4] [µM]	Compound
85	193	17	27.7	–	–	–	C=CC(=O)N1CCN2c3nc(=O)n(-c4c(C#N)cnn4C(C)(C)C)c4nc(-c5c(O)cccc5F)c(Cl)c(c34)OC[C@H]2C1 [Compound Z120]
6	54	3	18.7	–	–	–	C=CC(=O)N1CCN2c3nc(=O)n(-c4c(C)ccnc4C(C)C)c4nc(-c5c(O)cccc5F)c(F)c(c34)OC[C@@H]2C1 [Compound Z85]
34	182	9	> 10	–	–	–	C=CC(=O)N1CCN2c3nc(=O)n(-c4c(C)ccnc4C(C)C)c4nc(-c5ccc(Cl)cc5F)c(Cl)c(c34)OC[C@@H]2C1 [Compound Z65]
2	–	–	–	8	1	> 10	C=CC(=O)N1CCN2c3nc(=O)n(-c4c(C)ccnc4C(C)C)c4nc(-c5cccc(F)c5F)c(Cl)c(c34)OC[C@H]2C1 (single isomer, unassigned) [Compound Z77-2]
11	101	7	> 30	–	–	–	C=CC(=O)N1CCN2c3nc(=O)n(-c4c(CO)ccnc4C(C)C)c4nc(-c5ccccc5F)c(Cl)c(c34)OC[C@H]2C1 [Compound Z122]

— patent US20220251109A1, “OXAAZAQUINAZOLINE-7(8H)-KETONE COMPOUND, PREPARATION METHOD THEREFOR AND PHARMACEUTICAL APPLICATION THEREOF” (GENFLEET THERAPEUTICS (SHANGHAI) INC., priority 2019, published 2022)
